Source: publication PMC9821108, “Biochemical and Structural Analyses Shed Light on the Mechanisms of RadD DNA Binding and Its ATPase from Escherichia coli” (International Journal of Molecular Sciences, 2023)
Blank lines part the entries; values can stand above or below the molecule they belong to.

Columns and labels:
RadD [1] = molecular target: T1, RadD (Escherichia coli, UniProt P33919); assay: X-ray crystal structure, […] Å; type: binding; conditions: co-crystallised with 5 mM ATP and 5 mM MgCl2, ATP hydrolysed to ADP in the crystal; site between RD1 and RD2
T1 construct: recombinant RadD from RadD-pET-28a / RadD-pGEX-6p-1 plasmids expressed in E. coli; full-length with RD1, RD2, ZFD, CTD
T1 sequence (P33919 1-586): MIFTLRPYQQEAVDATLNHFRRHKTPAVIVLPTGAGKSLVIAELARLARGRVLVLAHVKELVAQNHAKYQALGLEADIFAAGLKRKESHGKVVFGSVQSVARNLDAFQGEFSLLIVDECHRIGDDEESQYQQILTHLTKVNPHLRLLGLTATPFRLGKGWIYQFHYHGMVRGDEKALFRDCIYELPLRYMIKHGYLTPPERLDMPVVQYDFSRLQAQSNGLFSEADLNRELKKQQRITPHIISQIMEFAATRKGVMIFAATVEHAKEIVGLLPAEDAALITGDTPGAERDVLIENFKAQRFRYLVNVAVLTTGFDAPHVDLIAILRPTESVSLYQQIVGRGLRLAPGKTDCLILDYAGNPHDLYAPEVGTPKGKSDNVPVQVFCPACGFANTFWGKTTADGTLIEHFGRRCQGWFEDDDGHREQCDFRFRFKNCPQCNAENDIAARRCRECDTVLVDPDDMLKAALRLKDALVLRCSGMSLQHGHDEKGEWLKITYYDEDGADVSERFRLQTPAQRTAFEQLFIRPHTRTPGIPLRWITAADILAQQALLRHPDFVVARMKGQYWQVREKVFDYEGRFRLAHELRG

RadD [2] = molecular target: T2, RadD (Escherichia coli, UniProt P33919, R6A); assay: malachite green phosphate release ATPase assay; type: biochemical; conditions: 0.375 μM enzyme, 1 mM ATP; buffer as above
T2 construct: recombinant RadD from RadD-pET-28a / RadD-pGEX-6p-1 plasmids expressed in E. coli; full-length with RD1, RD2, ZFD, CTD
T2 sequence (P33919 whole entry R6A): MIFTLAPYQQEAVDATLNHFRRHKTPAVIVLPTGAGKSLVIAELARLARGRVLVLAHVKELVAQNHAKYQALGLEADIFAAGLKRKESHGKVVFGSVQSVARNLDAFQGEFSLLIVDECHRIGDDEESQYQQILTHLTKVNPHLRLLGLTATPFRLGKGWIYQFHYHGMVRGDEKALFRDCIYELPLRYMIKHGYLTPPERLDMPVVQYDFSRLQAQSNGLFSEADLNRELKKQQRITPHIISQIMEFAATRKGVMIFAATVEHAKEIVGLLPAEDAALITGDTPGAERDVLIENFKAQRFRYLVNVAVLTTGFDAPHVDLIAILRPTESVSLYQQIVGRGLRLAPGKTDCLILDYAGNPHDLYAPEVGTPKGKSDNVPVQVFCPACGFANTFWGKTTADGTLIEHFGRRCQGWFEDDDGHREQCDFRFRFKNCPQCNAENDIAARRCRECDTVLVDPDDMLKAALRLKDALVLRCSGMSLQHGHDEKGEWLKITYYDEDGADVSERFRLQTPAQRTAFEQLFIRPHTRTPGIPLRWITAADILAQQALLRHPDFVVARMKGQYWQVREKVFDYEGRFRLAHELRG

RadD [3] = molecular target: T3, RadD (Escherichia coli, UniProt P33919, K37A); assay: malachite green phosphate release ATPase assay; type: biochemical; conditions: 0.375 μM enzyme, 1 mM ATP; buffer as above
T3 construct: recombinant RadD from RadD-pET-28a / RadD-pGEX-6p-1 plasmids expressed in E. coli; full-length with RD1, RD2, ZFD, CTD
T3 sequence (P33919 whole entry K37A): as the sequence (P33919 whole entry R6A) above, with A6R, K37A counted along it

RadD [4] = molecular target: T4, RadD (Escherichia coli, UniProt P33919, G36E); assay: malachite green phosphate release ATPase assay; type: biochemical; conditions: 0.375 μM enzyme, 1 mM ATP; buffer as above
T4 construct: recombinant RadD from RadD-pET-28a / RadD-pGEX-6p-1 plasmids expressed in E. coli; full-length with RD1, RD2, ZFD, CTD
T4 sequence (P33919 whole entry G36E): as the sequence (P33919 whole entry R6A) above, with A6R, G36E counted along it

RadD [5] = molecular target: T5, RadD (Escherichia coli, UniProt P33919, R343A); assay: malachite green phosphate release ATPase assay; type: biochemical; conditions: 0.375 μM enzyme, 1 mM ATP; buffer as above
T5 construct: recombinant RadD from RadD-pET-28a / RadD-pGEX-6p-1 plasmids expressed in E. coli; full-length with RD1, RD2, ZFD, CTD
T5 sequence (P33919 whole entry R343A): as the sequence (P33919 whole entry R6A) above, with A6R, R343A counted along it

RadD [6] = molecular target: T6, RadD (Escherichia coli, UniProt P33919, D117R); assay: malachite green phosphate release ATPase assay; type: biochemical; conditions: 0.375 μM enzyme, 1 mM ATP; buffer as above
T6 construct: recombinant RadD from RadD-pET-28a / RadD-pGEX-6p-1 plasmids expressed in E. coli; full-length with RD1, RD2, ZFD, CTD
T6 sequence (P33919 whole entry D117R): as the sequence (P33919 whole entry R6A) above, with A6R, D117R counted along it

RadD [7] = molecular target: T7, RadD (Escherichia coli, UniProt P33919, G34E); assay: malachite green phosphate release ATPase assay; type: biochemical; conditions: 0.375 μM enzyme, 1 mM ATP; buffer as above
T7 construct: recombinant RadD from RadD-pET-28a / RadD-pGEX-6p-1 plasmids expressed in E. coli; full-length with RD1, RD2, ZFD, CTD
T7 sequence (P33919 whole entry G34E): as the sequence (P33919 whole entry R6A) above, with A6R, G34E counted along it

RadD [8] = molecular target: T8, RadD (Escherichia coli, UniProt P33919, K68A); assay: malachite green phosphate release ATPase assay; type: biochemical; conditions: 0.375 μM enzyme, 1 mM ATP; buffer as above
T8 construct: recombinant RadD from RadD-pET-28a / RadD-pGEX-6p-1 plasmids expressed in E. coli; full-length with RD1, RD2, ZFD, CTD
T8 sequence (P33919 whole entry K68A): as the sequence (P33919 whole entry R6A) above, with A6R, K68A counted along it

RadD [9] = molecular target: T1, RadD; assay: X-ray crystal structure, […] Å; type: binding; conditions: co-crystallised with 5 mM ATPγS, no Mg added; site between RD1 and RD2
[10] = molecular target: RadD ZFD (Escherichia coli) (UniProt P33919); assay: EMSA; conditions: 20 mM Bis-Tris pH 6.5, 50 mM NaCl, 15% glycerol, 10 mM beta-mercaptoethanol, 37 C 30 min, 33 nM HJ, 0-20 uM RadD; 8% native PAGE in 0.5x TBE; text says …
[11] = molecular target: RadD CTD (Escherichia coli) (UniProt P33919); assay: EMSA; conditions: 20 mM Bis-Tris pH 6.5, 50 mM NaCl, 15% glycerol, 10 mM beta-mercaptoethanol, 37 C 30 min, 33 nM HJ, 0-20 uM RadD; 8% native PAGE in 0.5x TBE; text says …
[12] = substrate: Nc1ncnc2c1ncn2[C@@H]1O[C@H](COP(=O)(O)OP(=O)(O)OP(=O)(O)O)[C@@H](O)[C@H]1O; assay: malachite green phosphate release ATPase assay; type: biochemical, Escherichia coli; conditions: 0.4 μM RadD, 20 mM Hepes pH 7.5, 150 mM NaCl, 3 mM MgCl2, 20 °C, 30 min, no DNA or SSB

X-ray crystal structure, 2.7 Å (RadD [1]): RadD/ADP PDB: 8H5Y
Molecule: Nc1ncnc2c1ncn2[C@@H]1O[C@H](COP(=O)(O)OP(=O)(O)O)[C@@H](O)[C@H]1O [ADP]

Molecule: Nc1ncnc2c1ncn2[C@@H]1O[C@H](COP(=O)(O)OP(=O)(O)OP(=O)(O)O)[C@@H](O)[C@H]1O [ATP]
ATPase activity (RadD [2]): mutants R6A and N9A were not significantly different from the wild-type
ATPase activity (RadD [3]): mutant G34E, G36E, K37A, D117R, and R343A lost their ATPase activity
ATPase activity (RadD [4]): mutant G34E, G36E, K37A, D117R, and R343A lost their ATPase activity
ATPase activity (RadD [5]): mutant G34E, G36E, K37A, D117R, and R343A lost their ATPase activity
ATPase activity (RadD [6]): mutant G34E, G36E, K37A, D117R, and R343A lost their ATPase activity
ATPase activity (RadD [7]): mutant G34E, G36E, K37A, D117R, and R343A lost their ATPase activity
ATPase activity (RadD [8]): The ATPase activity of mutant K68A is three times that of the wild-type

Molecule: Nc1ncnc2c1ncn2[C@@H]1O[C@H](COP(=O)(O)OP(=O)(O)OP(O)(O)=S)[C@@H](O)[C@H]1O [ATPγS]
X-ray crystal structure, 3.0 Å (RadD [9]): RadD/ATPγS PDB: 8H5Z

Molecule: CCGCTACCAGTGATCACCAATGGATTGCTAGGACATCTTTGCCCACCTGCAGGTTCACCC / TGGGTGAACCTGCAGGTGGGCAAAGATGTCCTAGCAATCCATTGTCTATGACGTCAAGCTC / GAGCTTGACGTCATAGACAATGGATTGCTAGGACATCTTTGCCGTCTTGTCAATATCGGC / TGCCGATATTGACAAGACGGCAAAGATGTCCTAGCAATCCATTGGTGATCACTGGTAGCGG [Holliday junction (HJ)]
binding signal [10]: 43 % of WT
binding signal [11]: 47 % of WT

B1: RadD (Escherichia coli K-12) (protein)
chain: MIFTLRPYQQEAVDATLNHFRRHKTPAVIVLPTGAGKSLVIAELARLARGRVLVLAHVKELVAQNHAKYQALGLEADIFAAGLKRKESHGKVVFGSVQSVARNLDAFQGEFSLLIVDECHRIGDDEESQYQQILTHLTKVNPHLRLLGLTATPFRLGKGWIYQFHYHGMVRGDEKALFRDCIYELPLRYMIKHGYLTPPERLDMPVVQYDFSRLQAQSNGLFSEADLNRELKKQQRITPHIISQIMEFAATRKGVMIFAATVEHAKEIVGLLPAEDAALITGDTPGAERDVLIENFKAQRFRYLVNVAVLTTGFDAPHVDLIAILRPTESVSLYQQIVGRGLRLAPGKTDCLILDYAGNPHDLYAPEVGTPKGKSDNVPVQVFCPACGFANTFWGKTTADGTLIEHFGRRCQGWFEDDDGHREQCDFRFRFKNCPQCNAENDIAARRCRECDTVLVDPDDMLKAALRLKDALVLRCSGMSLQHGHDEKGEWLKITYYDEDGADVSERFRLQTPAQRTAFEQLFIRPHTRTPGIPLRWITAADILAQQALLRHPDFVVARMKGQYWQVREKVFDYEGRFRLAHELRG
notes: recombinant RadD from RadD-pET-28a / RadD-pGEX-6p-1 plasmids expressed in E. coli; full-length with RD1, RD2, ZFD, CTD
Km [12]: 3.48 mM
